Data as given in ChEMBL document CHEMBL1287680, “C-11 diamino cryptolepine derivatives NSC748392, NSC748393, and NSC748394: anticancer profile and G-quadruplex stabilization” (Bioorg Med Chem Lett, 2010).

Key:
NCI-H23 = test: cells; conditions: Homo sapiens
Description: Anticancer activity against human NCI-H23 cells

OVCAR-5 = test: cells; conditions: Homo sapiens
Description: Anticancer activity against human OVCAR5 cells

HOP-62 = test: cells; conditions: Homo sapiens
Description: Anticancer activity against human HOP62 cells

cells = conditions: Homo sapiens
Description: Anticancer activity against human RPMI8266 cells

SK-MEL-28 = test: cells; conditions: Homo sapiens
Description: Anticancer activity against human SK-MEL-28 cells

UO-31 = test: cells; conditions: Homo sapiens
Description: Anticancer activity against human UO31 cells

T47D = test: cells; conditions: Homo sapiens
Description: Anticancer activity against human T47D cells

SF-295 = test: cells; conditions: Homo sapiens
Description: Anticancer activity against human SF295 cells

MDA-MB-435 = test: cells; conditions: Homo sapiens
Description: Anticancer activity against human MDA-MB-435 cells

Nucleic Acid = conditions: Homo sapiens
Description: Binding affinity to human duplex DNA assessed as change in melting temperature by FRET-melting assay

NCI-H460 = test: cells; conditions: Homo sapiens
Description: Anticancer activity against human NCI-H460 cells

HCT-116 = test: cells; conditions: Homo sapiens
Description: Anticancer activity against human HCT116 cells

HT-29 = test: cells; conditions: Homo sapiens
Description: Anticancer activity against human HT-29 cells

OVCAR-8 = test: cells; conditions: Homo sapiens, OVCAR-8, read-out: pGI50 (converted)
Description: Anticancer activity against human OVCAR8 cells

HCT-15 = test: cells; conditions: Homo sapiens
Description: Anticancer activity against human HCT15 cells

MCF7 = test: cells; conditions: Homo sapiens
Description: Anticancer activity against human MCF7 cells

LOX IMVI = test: cells; conditions: Homo sapiens
Description: Anticancer activity against human LOXIMVI cells

SNB-75 = test: cells; conditions: Homo sapiens
Description: Anticancer activity against human SNB75 cells

U-251 = test: cells; conditions: Homo sapiens
Description: Anticancer activity against human U251 cells

SF-268 = test: cells; conditions: Homo sapiens
Description: Anticancer activity against human SF268 cells

K562 = test: cells; conditions: Homo sapiens
Description: Anticancer activity against human K562 cells

HCC 2998 = test: cells; conditions: Homo sapiens
Description: Anticancer activity against human HCC2998 cells

MDA-MB-231 = test: cells; conditions: Homo sapiens
Description: Anticancer activity against human MDA-MB-231 cells

IGROV-1 = test: cells; conditions: Homo sapiens
Description: Anticancer activity against human IGROV1 cells

NCI/ADR-RES = test: cells; conditions: Homo sapiens
Description: Anticancer activity against human NCI/ADR-RES cells

NCI-H226 = test: cells; conditions: Homo sapiens
Description: Anticancer activity against human NCI-H226 cells

A549 = test: cells; conditions: Homo sapiens
Description: Anticancer activity against human A549 cells

HOP-92 = test: cells; conditions: Homo sapiens
Description: Anticancer activity against human HOP92 cells

A498 = test: cells; conditions: Homo sapiens
Description: Anticancer activity against human A498 cells

`C[n+]1c2ccccc2c(Nc2ccc(N3CCCCC3)cc2)c2[nH]c3ccccc3c21.[Cl-]` gave a GI50 (NCI-H23; NCI-H23, read-out: pGI50 (converted)) of 398 nM, a CC50 (NCI-H23; NCI-H23, read-out: pLC50 (converted)) of 6610 nM and a TGI (NCI-H23; NCI-H23, read-out: pTGI) of 1700 nM. For the same compound, the GI50 (OVCAR-5; OVCAR-5, read-out: pGI50 (converted)) was 1070 nM, the CC50 (OVCAR-5; OVCAR-5, read-out: pLC50 (converted)) was 5500 nM and the TGI (OVCAR-5; OVCAR-5, read-out: pTGI) was 2400 nM. It also gave a GI50 (HOP-62; HOP-62, read-out: pGI50 (converted)) of 741 nM, a CC50 (HOP-62; HOP-62, read-out: pLC50 (converted)) of 5250 nM and a TGI (HOP-62; HOP-62, read-out: pTGI) of 2190 nM. It also gave a GI50 (cells; RPMI8266, read-out: pGI50 (converted)) of 158 nM, a CC50 (cells; RPMI8266, read-out: pLC50 (converted)) of 1000 nM and a TGI (cells; RPMI8266, read-out: pTGI) of 398 nM. The GI50 (SK-MEL-28; SK-MEL-28, read-out: pGI50 (converted)) was 372 nM, the CC50 (SK-MEL-28; SK-MEL-28, read-out: pLC50 (converted)) was 3470 nM and the TGI (SK-MEL-28; SK-MEL-28, read-out: pTGI) was 1150 nM. For the same compound, the GI50 (UO-31; UO-31, read-out: pGI50 (converted)) was 145 nM, the CC50 (UO-31; UO-31, read-out: pLC50 (converted)) was 3020 nM and the TGI (UO-31; UO-31, read-out: pTGI) was 832 nM. The GI50 (T47D; read-out: pGI50 (converted)) was 214 nM, the TGI (T47D; read-out: pTGI) was 603 nM and the GI50 (SF-295; SF-295, read-out: pGI50 (converted)) was 398 nM. It also gave a CC50 (SF-295; SF-295, read-out: pLC50 (converted)) of 4370 nM, a TGI (SF-295; SF-295, read-out: pTGI) of 1580 nM and a GI50 (MDA-MB-435; MDA-MB-435, read-out: pGI50 (converted)) of 447 nM. For the same compound, the CC50 (MDA-MB-435; MDA-MB-435, read-out: pLC50 (converted)) was 4900 nM, the TGI (MDA-MB-435; MDA-MB-435, read-out: pTGI) was 1660 nM and the ΔTm (Nucleic Acid) was 1.2 °C. It also gave a GI50 (NCI-H460; NCI-H460, read-out: pGI50 (converted)) of 145 nM, a CC50 (NCI-H460; NCI-H460, read-out: pLC50 (converted)) of 2290 nM and a TGI (NCI-H460; NCI-H460, read-out: pTGI) of 468 nM. The GI50 (HCT-116; HCT-116, read-out: pGI50 (converted)) was 132 nM, the CC50 (HCT-116; HCT-116, read-out: pLC50 (converted)) was 100000 nM and the TGI (HCT-116; HCT-116, read-out: pTGI) was 363 nM. It also gave a GI50 (HT-29; HT-29, read-out: pGI50 (converted)) of 178 nM, a CC50 (HT-29; HT-29, read-out: pLC50 (converted)) of 2140 nM and a TGI (HT-29; HT-29, read-out: pTGI) of 550 nM. It also gave a GI50 (OVCAR-8) of 316 nM, a GI50 (HCT-15; HCT-15, read-out: pGI50 (converted)) of 170 nM and a CC50 (HCT-15; HCT-15, read-out: pLC50 (converted)) of 912 nM. It also gave a TGI (HCT-15; HCT-15, read-out: pTGI) of 398 nM, a GI50 (MCF7; MCF7, read-out: pGI50 (converted)) of 126 nM and a CC50 (MCF7; MCF7, read-out: pLC50 (converted)) of 912 nM. It also gave a TGI (MCF7; MCF7, read-out: pTGI) of 339 nM, a GI50 (LOX IMVI; read-out: pGI50 (converted)) of 148 nM and a CC50 (LOX IMVI; read-out: pLC50 (converted)) of 1450 nM. The TGI (LOX IMVI; read-out: pTGI) was 398 nM, the GI50 (SNB-75; SNB-75, read-out: pGI50 (converted)) was 692 nM and the CC50 (SNB-75; SNB-75, read-out: pLC50 (converted)) was 4470 nM. It also gave a TGI (SNB-75; SNB-75, read-out: pTGI) of 2000 nM, a GI50 (U-251; U-251, read-out: pGI50 (converted)) of 288 nM and a CC50 (U-251; U-251, read-out: pLC50 (converted)) of 3630 nM. It also gave a TGI (U-251; U-251, read-out: pTGI) of 1230 nM, a GI50 (SF-268; SF-268, read-out: pGI50 (converted)) of 676 nM and a CC50 (SF-268; SF-268, read-out: pLC50 (converted)) of 6030 nM. It also gave a TGI (SF-268; SF-268, read-out: pTGI) of 2190 nM, a CC50 (K562; K562, read-out: pLC50 (converted)) of over 100000 nM and a TGI (K562; K562, read-out: pTGI) of over 100000 nM. For the same compound, the GI50 (HCC 2998; HCC 2998, read-out: pGI50 (converted)) was 162 nM, the CC50 (HCC 2998; HCC 2998, read-out: pLC50 (converted)) was 813 nM and the TGI (HCC 2998; HCC 2998, read-out: pTGI) was 363 nM. The GI50 (MDA-MB-231; MDA-MB-231, read-out: pGI50 (converted)) was 490 nM, the CC50 (MDA-MB-231; MDA-MB-231, read-out: pLC50 (converted)) was 6030 nM and the TGI (MDA-MB-231; MDA-MB-231, read-out: pTGI) was 2090 nM. The GI50 (IGROV-1; IGROV-1, read-out: pGI50 (converted)) was 229 nM, the CC50 (IGROV-1; IGROV-1, read-out: pLC50 (converted)) was 3470 nM and the TGI (IGROV-1; IGROV-1, read-out: pTGI) was 1170 nM. It also gave a GI50 (NCI/ADR-RES; read-out: pGI50 (converted)) of 617 nM, a TGI (NCI/ADR-RES; read-out: pTGI) of 2450 nM and a GI50 (NCI-H226; NCI-H226, read-out: pGI50 (converted)) of 269 nM. The TGI (NCI-H226; NCI-H226, read-out: pTGI) was 1860 nM, the GI50 (A549; A549, read-out: pGI50 (converted)) was 162 nM and the CC50 (A549; A549, read-out: pLC50 (converted)) was over 100000 nM. It also gave a TGI (A549; A549, read-out: pTGI) of 589 nM, a GI50 (HOP-92; HOP-92, read-out: pGI50 (converted)) of 263 nM and a CC50 (HOP-92; HOP-92, read-out: pLC50 (converted)) of 5130 nM. The TGI (HOP-92; HOP-92, read-out: pTGI) was 1200 nM, the GI50 (A498; A498, read-out: pGI50 (converted)) was 178 nM and the CC50 (A498; A498, read-out: pLC50 (converted)) was 2140 nM. It also gave a TGI (A498; A498, read-out: pTGI) of 537 nM.
